Results reported in article PMC5603603, “Linoleic and palmitoleic acid block streptokinase-mediated plasminogen activation and reduce severity of invasive group A streptococcal infection” (Scientific Reports, 2017).
“And” between values parts separate entries of the source, which are not always exact repeats. Equal entries are not always repeated.

What was measured:
[1] = target: cluster 2a type streptokinase (Streptococcus pyogenes, UniProt A0A288R465); parameters: species or system group A streptococcal strain A614; conditions: cell-based; for fold lower IC50 compared to TXA and EACA: streptokinase cluster type 2a
Protocol: The pellet from a mid-log phase culture of the strain A614 (cluster 2a type) or A314 (cluster 2b type) was washed twice with PBS and bacteria were adjusted to an OD600 of 1.0 in HEPES-buffer (10 mM HEPES, 150 mM NaCl, 0.01% Tween 20, pH 7.4). 90 µl of bacterial cells, plasminogen (final concentration 6.7 µg/ml per well) and fibrinogen (final concentration 1 µM per well) were pre-mixed. Then inhibitory compounds (LA, PA, oleic, myristic, stearic, palmitic, arachidonic, arachidic, linolenic acid, TXA or EACA) were added. Stocks of LA and PA were prepared in methanol and then diluted in PBS. Stocks of arachidic, oleic, arachidonic, myristic, palmitic, stearic and linolenic acid were prepared in 60% DMSO/PBS and then diluted in PBS. The untreated control received the same amount of PBS as in case of TXA and EACA as control or the same amount of methanol diluted in PBS as in case of LA and PA, respectively, or the same amount of DMSO diluted in PBS as in case of the other commercially available fatty acids. Then 50 µl of the respective supernatant (supernatant from the strain A614 if cells from A614 were used, supernatant from the strain A314 were used in case of cells from the GAS strain A314) and 3.75 µl 10 mM S-2251 (Chromogenix) were added. The assay was incubated at 37 °C and measured at the beginning of the reaction and then every hour at 405 nm after 3 sec of shaking on a Tecan Sunrise ELISAReader using Magellan software. Each experiment was repeated three times. IC50 values were calculated using Microsoft® Excel software.

[2] = tested on: recombinant cluster 2a type streptokinase; assay: Plasminogen assay using recombinant streptokinase; format: biochemical, group A streptococcal strain A614; conditions: 40 µg/ml
Protocol: An overnight culture of the strain A614 (in THY medium) was centrifuged at 5000 rpm for 10 min. The supernatant was discarded and the pellet was resuspended in TE-buffer (from DNeasy blood and tissue kit, Qiagen) containing 10% DNase-free RNase (10 µg/ml). The suspension was transferred to a vial filled with zirconium beads. Bacterial cells were lysed using a fastprep machine (MP Biomedical) twice for 30 sec at 4.0 m/sec. Then AL-buffer (from DNeasy blood and tissue kit, Qiagen) was added and beads were spun down for 30 sec. The lysate was transferred to a new reaction tube and proteinase K was added. The tube was inverted and incubated for 30 min at 56 °C. Then 100% ethanol was added and genomic DNA was isolated according to the protocol of the DNeasy blood and tissue kit (Qiagen). […] Using a gel electrophoresis, the 1500 bp product was detected, cut out and purified using a PCR clean-up, gel extraction kit (Machery-Nagel). […]
75 µl of the recombinant streptokinase (concentration 1 mg/ml) was added to the wells of a 96well plate followed by 69 µl PBS, 5 µl S-2251 (10 mM stock solution, chromogenic substrate for the detection of plasmin, Chromogenix) and 1 µl plasminogen (1 mg/ml stock solution, Biopur or Sigma). […] The absorption was measured at the beginning of the reaction and then every hour at 405 nm after 3 sec of shaking on a Tecan Sunrise ELISA Reader using Magellan software. […]

[3] = target: cluster 2b type streptokinase (Streptococcus pyogenes, UniProt P10520); parameters: species or system group A streptococcal strain A314; conditions: cell-based; for IC50: cluster 2b; for fold lower IC50 compared to TXA and EACA: streptokinase cluster type 2b
Protocol: Then inhibitory compounds (LA, PA, oleic, myristic, stearic, palmitic, arachidonic, arachidic, linolenic acid, TXA or EACA) were added. Stocks of LA and PA were prepared in methanol and then diluted in PBS. Stocks of arachidic, oleic, arachidonic, myristic, palmitic, stearic and linolenic acid were prepared in 60% DMSO/PBS and then diluted in PBS. The untreated control received the same amount of PBS as in case of TXA and EACA as control or the same amount of methanol diluted in PBS as in case of LA and PA, respectively, or the same amount of DMSO diluted in PBS as in case of the other commercially available fatty acids. […] The assay was incubated at 37 °C and measured at the beginning of the reaction and then every hour at 405 nm after 3 sec of shaking on a Tecan Sunrise ELISAReader using Magellan software. Each experiment was repeated three times. IC50 values were calculated using Microsoft® Excel software.

Row | Compound | fold lower IC50 compared to TXA and EACA [1] [fold] | inhibition of plasminogen activation [2] | IC50 [3] | fold lower IC50 compared to TXA and EACA [3] [fold] | IC50 ([1]; cluster 2a)
1 | CCCCC/C=C\C/C=C\CCCCCCCC(=O)O [LA, linoleic acid] | 250 | 60–70% | 64.5 µM and 61.7 µM | 1000 | 
2 | CCCCCC/C=C\CCCCCCCC(=O)O [PA, palmitoleic acid] | 250 | 60–70% | 61.1 µM and 63.3 µM | 1000 | 359 µM and 471 µM
